Assay results as given in patent publication US8153643B2, “Quinazoline derivatives” (AstraZeneca AB, priority 2004, dated 2012).

Tests used:
PDGFRα tyrosine kinase = biological target: T1, PDGFRα tyrosine kinase (Homo sapiens, UniProt P16234); assay: In vitro enzyme assay (ELISA), PDGFRα; type: biochemical; settings: Test (a); ATP 14 μM; read-out: IC50 versus PDGFRα tyrosine kinase
T1 construct: PDGFRα, PDGFRβ and KDR receptor cytoplasmic domains, obtained by expression of recombinant protein in insect cells; purchased Upstate Biotechnology Inc. 14-467; host or cells: Sf9 insect cells
T1 sequence (P16234 550-1089 limits assumed): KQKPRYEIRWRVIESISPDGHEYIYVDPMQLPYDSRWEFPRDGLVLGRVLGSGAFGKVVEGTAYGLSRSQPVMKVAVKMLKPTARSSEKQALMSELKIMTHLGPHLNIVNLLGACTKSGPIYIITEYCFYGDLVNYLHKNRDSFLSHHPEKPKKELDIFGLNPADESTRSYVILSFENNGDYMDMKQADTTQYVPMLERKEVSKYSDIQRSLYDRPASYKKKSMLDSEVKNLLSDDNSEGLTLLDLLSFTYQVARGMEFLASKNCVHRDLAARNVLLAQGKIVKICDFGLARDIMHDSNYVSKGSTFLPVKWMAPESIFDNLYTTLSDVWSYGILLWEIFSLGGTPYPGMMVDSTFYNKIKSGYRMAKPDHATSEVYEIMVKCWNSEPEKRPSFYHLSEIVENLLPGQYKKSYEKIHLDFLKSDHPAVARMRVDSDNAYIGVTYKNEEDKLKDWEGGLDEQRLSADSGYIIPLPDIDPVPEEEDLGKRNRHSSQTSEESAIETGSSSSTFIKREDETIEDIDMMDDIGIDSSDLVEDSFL
Description: (§1) (a) In Vitro Enzyme Assays
(§2) The ability of test compounds to inhibit the phosphorylation of a tyrosine containing polypeptide substrate by the tyrosine kinase enzymes PDGFRα, PDGFRβ and KDR was assessed using conventional ELISA assays.
(§3) DNA encoding the PDGFRα, PDGFRβ or KDR receptor cytoplasmic domains may be obtained by total gene synthesis (International Biotechnology Lab., 1987, 5(3), 19-25) or by cloning. The DNA fragments may be expressed in a suitable expression system to obtain polypeptide with tyrosine kinase activity. For example, PDGFRα, PDGFRβ and KDR receptor cytoplasmic domains, obtained by expression of recombinant protein in insect cells, can be shown to display intrinsic tyrosine kinase activity. In the case of the VEGF receptor KDR (Genbank Accession No. L04947), a DNA fragment encoding most of the cytoplasmic domain, commencing with methionine 806 and including the termination codon may be cloned into a baculovirus transplacement vector [for example pAcYM1 (see The Baculovirus Expression System: A Laboratory Guide, L. A. King and R. D. Possee, Chapman and Hall, 1992) or pAc360 or pBlueBacHis (available from Invitrogen Corporation)]. This recombinant construct may be co-transfected into insect cells [for example Spodoptera frugiperda 21 (Sf21) or Spodoptera frugiperda 9 (Sf9)] with viral DNA (for example Pharmingen BaculoGold) to prepare recombinant baculovirus. Details of the methods for the assembly of recombinant DNA molecules and the preparation and use of recombinant baculovirus can be found in standard texts, for example Sambrook et al., 1989, Molecular cloning—A Laboratory Manual, 2nd edition, Cold Spring Harbour Laboratory Press and O'Reilly et al., 1992, Baculovirus Expression Vectors—A Laboratory Manual, W.H. Freeman and Co, New York). […]

PDGFRβ tyrosine kinase = biological target: T2, PDGFRβ tyrosine kinase (Homo sapiens, UniProt P09619); assay: In vitro enzyme assay (ELISA), PDGFRβ; type: biochemical; settings: Test (a); ATP 2.8 μM; read-out: IC50 versus PDGFRβ tyrosine kinase
T2 construct: PDGFRα, PDGFRβ and KDR receptor cytoplasmic domains, obtained by expression of recombinant protein in insect cells; purchased Upstate Biotechnology Inc. 14-463; host or cells: Sf9 insect cells
T2 sequence (P09619 554-1106 limits assumed): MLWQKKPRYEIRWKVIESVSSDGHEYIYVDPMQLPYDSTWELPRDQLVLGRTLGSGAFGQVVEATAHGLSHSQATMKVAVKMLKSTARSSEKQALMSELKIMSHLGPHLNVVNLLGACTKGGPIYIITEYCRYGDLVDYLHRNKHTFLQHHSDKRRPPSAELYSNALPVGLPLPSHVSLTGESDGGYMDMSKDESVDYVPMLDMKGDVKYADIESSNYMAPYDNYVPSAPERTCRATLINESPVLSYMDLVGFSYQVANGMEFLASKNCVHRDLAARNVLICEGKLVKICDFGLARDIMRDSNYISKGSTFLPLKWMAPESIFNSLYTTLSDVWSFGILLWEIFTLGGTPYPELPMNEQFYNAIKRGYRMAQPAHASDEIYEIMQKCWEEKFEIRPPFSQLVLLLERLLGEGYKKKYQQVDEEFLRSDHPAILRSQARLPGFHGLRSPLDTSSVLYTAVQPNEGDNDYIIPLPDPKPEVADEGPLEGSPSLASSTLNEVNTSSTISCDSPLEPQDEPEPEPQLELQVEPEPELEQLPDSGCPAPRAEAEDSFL
Description: as §1, §2, §3

KDR tyrosine kinase = biological target: T3, KDR tyrosine kinase (Homo sapiens, UniProt P35968); assay: In vitro enzyme assay (ELISA), KDR; type: biochemical; settings: Test (a); ATP 8 μM; read-out: IC50 versus KDR tyrosine kinase
T3 construct: encoding most of the cytoplasmic domain, commencing with methionine 806 and including the termination codon; made in house; host or cells: Sf9 insect cells (baculovirus)
T3 sequence (P35968 786-1356 limits assumed): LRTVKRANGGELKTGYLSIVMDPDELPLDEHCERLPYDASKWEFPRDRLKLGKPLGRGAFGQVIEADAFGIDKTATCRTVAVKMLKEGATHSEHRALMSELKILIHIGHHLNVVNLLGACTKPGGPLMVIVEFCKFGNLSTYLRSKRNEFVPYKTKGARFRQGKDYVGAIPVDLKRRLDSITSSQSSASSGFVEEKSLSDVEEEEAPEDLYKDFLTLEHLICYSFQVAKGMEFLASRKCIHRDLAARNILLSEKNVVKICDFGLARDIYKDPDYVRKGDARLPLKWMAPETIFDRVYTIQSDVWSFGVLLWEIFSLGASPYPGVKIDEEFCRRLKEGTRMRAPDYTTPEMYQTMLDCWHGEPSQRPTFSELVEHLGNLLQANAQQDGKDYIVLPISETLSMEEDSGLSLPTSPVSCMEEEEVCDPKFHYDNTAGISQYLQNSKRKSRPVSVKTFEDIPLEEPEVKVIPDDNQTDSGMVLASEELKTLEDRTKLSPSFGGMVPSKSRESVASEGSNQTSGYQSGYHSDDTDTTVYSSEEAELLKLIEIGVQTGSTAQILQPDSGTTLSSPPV
Description: as §1, §2
DNA encoding the PDGFRα, PDGFRβ or KDR receptor cytoplasmic domains may be obtained by total gene synthesis (International Biotechnology Lab., 1987, 5(3), 19-25) or by cloning. The DNA fragments may be expressed in a suitable expression system to obtain polypeptide with tyrosine kinase activity. For example, PDGFRα, PDGFRβ and KDR receptor cytoplasmic domains, obtained by expression of recombinant protein in insect cells, can be shown to display intrinsic tyrosine kinase activity. In the case of the VEGF receptor KDR (Genbank Accession No. L04947), a DNA fragment encoding most of the cytoplasmic domain, commencing with methionine 806 and including the termination codon may be cloned into a baculovirus transplacement vector [for example pAcYM1 (see The Baculovirus Expression System: A Laboratory Guide, L. A. King and R. D. Possee, Chapman and Hall, 1992) or pAc360 or pBlueBacHis (available from Invitrogen Corporation)]. This recombinant construct may be co-transfected into insect cells [for example Spodoptera frugiperda 21 (Sf21) or Spodoptera frugiperda 9 (Sf9)] with viral DNA (for example Pharmingen BaculoGold) to prepare recombinant baculovirus. Details of the methods for the assembly of recombinant DNA molecules and the preparation and use of recombinant baculovirus can be found in standard texts, for example Sambrook et al., 1989, Molecular cloning—A Laboratory Manual, 2nd edition, Cold Spring Harbour Laboratory Press and O'Reilly et al., 1992, Baculovirus Expression Vectors—A Laboratory Manual, W.H. Freeman and Co, New York).
For expression, Sf9 cells were infected with plaque-pure KDR recombinant virus and harvested 48 hours later. […]

phospho-Tyr751 PDGFRβ = biological target: T4, phospho-Tyr751 PDGFRβ (Homo sapiens, UniProt P09619); assay: In vitro phospho-Tyr751 PDGFRβ ELISA assay; type: cell-based; settings: Test (b); MG63 osteosarcoma cells stimulated with PDGFBB; read-out: IC50 versus phospho-Tyr751 PDGFRβ
T4 construct: phosphorylation of PDGFR expressed on MG63 osteosarcoma cells; endogenous in cells; host or cells: MG63 osteosarcoma cells
T4 sequence (P09619 33-1106): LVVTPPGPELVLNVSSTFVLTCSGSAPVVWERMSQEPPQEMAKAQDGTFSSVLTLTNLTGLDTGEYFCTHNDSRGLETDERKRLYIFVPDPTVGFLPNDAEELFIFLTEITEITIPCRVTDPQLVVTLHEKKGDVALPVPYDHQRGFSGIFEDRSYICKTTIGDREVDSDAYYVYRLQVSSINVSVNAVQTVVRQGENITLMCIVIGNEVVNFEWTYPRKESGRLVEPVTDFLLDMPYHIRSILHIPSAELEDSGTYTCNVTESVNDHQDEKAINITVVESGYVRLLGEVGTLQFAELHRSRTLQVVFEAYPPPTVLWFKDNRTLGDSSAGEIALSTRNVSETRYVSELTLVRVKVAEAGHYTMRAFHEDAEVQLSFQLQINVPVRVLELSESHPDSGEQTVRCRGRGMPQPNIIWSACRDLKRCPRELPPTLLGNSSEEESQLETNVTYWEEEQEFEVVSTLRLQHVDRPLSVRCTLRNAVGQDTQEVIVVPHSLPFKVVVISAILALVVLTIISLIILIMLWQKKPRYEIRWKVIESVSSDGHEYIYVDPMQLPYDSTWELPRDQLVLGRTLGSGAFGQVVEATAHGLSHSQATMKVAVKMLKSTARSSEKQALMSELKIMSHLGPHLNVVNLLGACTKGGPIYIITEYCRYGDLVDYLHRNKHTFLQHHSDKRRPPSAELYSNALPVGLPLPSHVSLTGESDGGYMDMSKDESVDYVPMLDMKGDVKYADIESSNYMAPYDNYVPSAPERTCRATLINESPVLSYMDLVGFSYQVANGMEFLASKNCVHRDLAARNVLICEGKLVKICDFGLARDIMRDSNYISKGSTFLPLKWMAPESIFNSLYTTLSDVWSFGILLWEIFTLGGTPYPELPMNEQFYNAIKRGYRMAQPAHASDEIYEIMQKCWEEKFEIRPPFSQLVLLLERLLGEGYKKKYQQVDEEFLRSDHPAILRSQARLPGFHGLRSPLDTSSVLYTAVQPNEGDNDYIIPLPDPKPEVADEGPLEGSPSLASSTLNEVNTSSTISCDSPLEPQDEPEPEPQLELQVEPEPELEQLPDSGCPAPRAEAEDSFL
Description: (b) In Vitro Phospho-Tyr751 PDGFRβ ELISA Assay
This assay uses a conventional EISA method to determine the ability of test compounds to inhibit phosphorylation of tyrosine in PDGFRβ.
An MG63 osteosarcoma cell line [American Type Culture Collection (ATCC) CCL 1427] was routinely maintained at 37° C. with 7.5% CO2 in Dulbecco's modified Eagle's growth medium (DMEM; Sigma-Aldrich; Catalogue No. D6546) containing 10% foetal calf serum (FCS; Sigma-Aldrich; Catalogue No. F7524) and 2 mM L-glutamine (Invitrogen Ltd., Paisley, UK; Catalogue No. 25030-024).
For the assay, the cells were detached from the culture flask using a trypsin/ethylenediaminetetraacetic acid (EDTA) mixture (Invitrogen Ltd.; Catalogue No. 15400-054) and resuspended in test media comprising DMEM without phenol red (Sigma-Aldrich; Catalogue No. D5921) containing 1% charcoal-stripped foetal calf serum (FCS) (Sigma-Aldrich; Catalogue No. F7524, stripped by incubation with dextran-coated activated charcoal at 55° C. for 30 minutes with continuous stirring followed by removal of the charcoal by centrifugation and filter sterilisation) and 2 mM L-glutamine (Invitrogen Ltd., Catalogue No. 25030-024) to give 6×10^4 cells per ml. Aliquots (100 μl) were seeded into each of the wells of columns 2-12 (excluding column 1) and rows B-G (excluding rows A and H) of a clear 96 well tissue culture plate (Corning Life Sciences, Koolhovenlaan, The Netherlands; Catalogue No. 3595) to give a density of about 6000 cells per well. Aliquots (100 μl) of culture media were placed in the outer wells to minimise edge effects. The cells were incubated overnight at 37° C. with 7.5% CO2 to allow the cells to adhere to the wells.
Test compounds were prepared as 10 mM stock solutions in DMSO and serially diluted as required with test media to give a range of concentrations. Aliquots (50 μl) of each compound concentration were added to the cells in each well. Control cells received a dilution of DMSO only. The cells were incubated for 90 minutes at 37° C. with 7.5% CO2.
The resultant cells were stimulated with PDGFBB using the following procedure. A lyophilised powder of PDGFBB, (Sigma-Aldrich; Catalogue No. P4306) was mixed with 4 mM aqueous hydrochloric acid containing 0.1% filter-sterilised BSA to provide a stock solution of 10 μg/ml of PDGFBB. A dilution of this stock solution into test medium provided a 200 ng/ml PDGFBB solution. Aliquots thereof (50 μl) were added to compound treated cells and to one set of control wells to give the “maximum” control. The “minimum” controls received media only. The cells were incubated at 37° C. with 7.5% CO2 for 5 minutes. […]

PDGF receptor kinase = settings: Nature Reviews, 2002, 1, 493-502; Cancer Research, 1996, 56, 100-104; cited from earlier work
[1] = test system: human glioblastoma lines U343 and U87; settings: injection into the brains of nude mice of U343 and U87; Cancer Research, 2000, 60, 5143-5150; cited from earlier work
[2] = test system: dermatofibrosarcoma protruberans cell cultures; settings: Cancer Research, 2001, 61, 5778-5783; cited from earlier work

| SMILES | IC50 (PDGFRα tyrosine kinase) | IC50 (PDGFRβ tyrosine kinase) | IC50 (KDR tyrosine kinase) | IC50 (phospho-Tyr751 PDGFRβ) | PDGF receptor kinase activity (PDGF receptor kinase) | growth of glioblastoma tumours [1] | in vivo growth of dermatofibrosarcoma protruberans cell cultures [2] |
| --- | --- | --- | --- | --- | --- | --- | --- |
| COc1cccc(NC(=O)Cc2ccc(Oc3ncnc4cc(OC)c(OC)cc34)cc2)c1 [Example 1, N-(3-methoxyphenyl)-2-[4-(6,7-dimethoxyquinazolin-4-yloxy)phenyl]acetamide] | ~250 nM | ~60 nM | ~1 nM | ~1 nM | – | – | – |
| COc1cc2ncnc(Oc3ccc(CC(=O)Nc4ccc(N(C)C)cn4)cc3)c2cc1OC [Example 6, N-(5-dimethylaminopyridin-2-yl)-2-[4-(6,7-dimethoxyquinazolin-4-yloxy)phenyl]acetamide] | ~400 nM | ~300 nM | ~10 nM | ~0.5 nM | – | – | – |
| COc1cc2ncnc(Oc3ccc(CC(=O)Nc4cccc(N(C)C)n4)cc3)c2cc1OC [Compound 4 within Example 10, N-(6-dimethylaminopyridin-2-yl)-2-[4-(6,7-dimethoxyquinazolin-4-yloxy)phenyl]acetamide] | – | – | ~10 nM | ~1 nM | – | – | – |
| COc1cc2ncnc(Oc3ccc(CC(=O)Nc4nc(C)cs4)cc3)c2cc1OC [Compound 17 within Example 9, N-(4-methylthiazol-2-yl)-2-[4-(6,7-dimethoxyquinazolin-4-yloxy)phenyl]acetamide] | ~300 nM | ~100 nM | – | ~2 nM | – | – | – |
| Cc1ccc(NC(=O)c2ccc(CN3CCN(C)CC3)cc2)cc1Nc1nccc(-c2cccnc2)n1 [imatinib] | – | – | – | – | inhibit PDGF receptor kinase activity | inhibits the growth | inhibits the in vivo growth |
